Laboratory results reported in patent publication US12037344B2, “NLRP3 modulators” (INNATE TUMOR IMMUNITY, INC., priority 2018, dated 2024).
Counter-ions that a name gives are not always drawn. Like-named read-outs stand apart in the source and are kept apart here.

Tests used:
[1] = target: T1, TLR7 (Homo sapiens, UniProt Q9NYK1); test: In vitro human TLR7 binding reporter assay (HEK-Blue, NF-kB/AP1-inducible SEAP); assay type: cell-based; settings: read-out: TLR7 Agonist EC50
T1 construct: human HEK-Blue cells co-expressing a TLR7 or TLR8 gene
T1 sequence (Q9NYK1 27-1049): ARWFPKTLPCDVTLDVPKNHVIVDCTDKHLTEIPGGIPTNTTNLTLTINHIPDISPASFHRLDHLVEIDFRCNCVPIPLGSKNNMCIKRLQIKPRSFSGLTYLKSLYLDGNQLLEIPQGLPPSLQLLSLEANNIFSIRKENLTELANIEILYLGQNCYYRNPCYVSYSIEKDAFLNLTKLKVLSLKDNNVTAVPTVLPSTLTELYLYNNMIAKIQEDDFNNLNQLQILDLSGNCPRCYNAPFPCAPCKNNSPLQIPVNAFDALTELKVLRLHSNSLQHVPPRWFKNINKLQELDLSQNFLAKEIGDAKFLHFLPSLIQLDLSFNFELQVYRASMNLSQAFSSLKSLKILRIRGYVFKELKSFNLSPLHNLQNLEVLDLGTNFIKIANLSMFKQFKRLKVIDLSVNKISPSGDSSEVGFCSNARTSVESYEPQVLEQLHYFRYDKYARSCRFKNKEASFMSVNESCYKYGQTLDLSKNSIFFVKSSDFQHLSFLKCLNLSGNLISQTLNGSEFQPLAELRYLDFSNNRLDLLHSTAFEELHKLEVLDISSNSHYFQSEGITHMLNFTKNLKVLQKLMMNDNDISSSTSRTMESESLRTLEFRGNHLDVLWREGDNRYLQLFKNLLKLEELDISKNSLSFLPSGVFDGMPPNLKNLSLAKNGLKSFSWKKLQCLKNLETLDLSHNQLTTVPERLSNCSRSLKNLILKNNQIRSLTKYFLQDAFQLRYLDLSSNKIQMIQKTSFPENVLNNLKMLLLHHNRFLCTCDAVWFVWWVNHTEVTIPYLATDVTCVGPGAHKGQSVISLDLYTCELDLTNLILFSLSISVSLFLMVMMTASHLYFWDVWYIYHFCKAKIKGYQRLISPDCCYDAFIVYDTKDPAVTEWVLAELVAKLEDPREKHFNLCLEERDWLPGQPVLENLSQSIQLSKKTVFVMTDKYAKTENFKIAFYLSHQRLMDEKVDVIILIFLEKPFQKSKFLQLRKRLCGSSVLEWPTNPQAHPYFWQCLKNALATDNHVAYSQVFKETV
Outline: (§1)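 HEK-Blue cells expressing human TLR7 or TLR8 with NF-kB/AP1-inducible SEAP reporter, plated 24 h, then compound-treated 18 h at 37° C, 5% CO2. EC50 normalized to 100% Ymax set by 50 μM reference standard.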

[2] = tested on: THP-1 cells; test: Measurement of IL-1β production, hTRF protocol (second alternative procedure), THP-1 cells; assay type: cell-based, human; settings: read-out: NLRP3 hILIB EC50
Outline: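 THP-1 cells differentiated overnight with 50 ng/ml PMA, then plated at 50,000 cells/well in RPMI with 2% FBS onto serial compound dilutions (top final concentration 10 μM) for 2 hours at 37° C. Supernatant IL-1β measured by hTRF (antibodies at 1:40, overnight at 4° C), read at 665/615 nm against a standard curve.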

[3] = target: T2, TLR8 (Homo sapiens, UniProt Q9NR97); test: In vitro human TLR8 binding reporter assay (HEK-Blue, NF-kB/AP1-inducible SEAP); assay type: cell-based; settings: read-out: TLR8 Agonist EC50
T2 construct: human HEK-Blue cells co-expressing a TLR7 or TLR8 gene
T2 sequence (Q9NR97 27-1041): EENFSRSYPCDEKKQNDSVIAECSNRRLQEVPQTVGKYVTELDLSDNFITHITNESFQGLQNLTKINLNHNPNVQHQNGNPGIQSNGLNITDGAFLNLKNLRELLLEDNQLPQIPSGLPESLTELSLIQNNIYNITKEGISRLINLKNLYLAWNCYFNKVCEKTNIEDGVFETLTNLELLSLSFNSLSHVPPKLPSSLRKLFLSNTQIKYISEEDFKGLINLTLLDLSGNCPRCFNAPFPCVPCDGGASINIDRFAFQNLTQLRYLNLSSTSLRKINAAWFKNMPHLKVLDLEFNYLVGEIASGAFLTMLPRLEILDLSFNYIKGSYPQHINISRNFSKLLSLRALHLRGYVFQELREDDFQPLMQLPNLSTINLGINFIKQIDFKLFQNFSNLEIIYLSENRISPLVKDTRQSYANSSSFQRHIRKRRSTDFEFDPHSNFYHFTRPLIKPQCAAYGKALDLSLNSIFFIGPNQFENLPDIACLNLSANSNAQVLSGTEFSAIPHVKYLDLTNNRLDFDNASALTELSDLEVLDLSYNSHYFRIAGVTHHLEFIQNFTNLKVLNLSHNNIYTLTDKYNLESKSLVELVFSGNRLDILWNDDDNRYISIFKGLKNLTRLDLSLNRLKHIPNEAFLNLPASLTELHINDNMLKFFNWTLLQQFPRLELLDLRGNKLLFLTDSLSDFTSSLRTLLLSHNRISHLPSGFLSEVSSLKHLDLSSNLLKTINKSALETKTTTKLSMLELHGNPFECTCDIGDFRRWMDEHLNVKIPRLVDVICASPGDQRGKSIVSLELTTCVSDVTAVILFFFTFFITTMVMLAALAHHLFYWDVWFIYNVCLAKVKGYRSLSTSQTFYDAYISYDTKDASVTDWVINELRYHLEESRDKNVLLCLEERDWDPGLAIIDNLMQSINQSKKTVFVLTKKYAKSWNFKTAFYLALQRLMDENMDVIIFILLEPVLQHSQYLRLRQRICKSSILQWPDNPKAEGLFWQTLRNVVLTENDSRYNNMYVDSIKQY
Outline: as §1

[4] = Homo sapiens, THP-1, IL-1β production, human
[5] = Homo sapiens, THP-1, IL-1β production, human cells

Structure (SMILES) | EC50 ([1]; activity range class) [µM] | EC50 [2, 4] [µM] | EC50 ([3]; activity range class) [µM] | EC50 ([1]; activity range) [µM] | EC50 [2, 5] [µM] | EC50 ([3]; activity range) [µM] | EC50 ([2]; IL-1β production, human) [µM] | EC50 ([2]; IL-1β production, human cells) [µM]
Nc1nc2cc(-c3cc[nH]n3)ccc2c2cn(CCNCc3ccccn3)nc12 [Example 112] | > 100 | 2.5 | > 100 | – | – | – | – | –
NCCn1cc2c(N)nc3cc(-c4cc[nH]n4)ccc3c2n1 [Example 149, 2-(2-aminoethyl)-7-(1H-pyrazol-3-yl)-2H-pyrazolo[4,3-c]quinolin-4-amine] | > 100 | 0.38 | > 100 | – | – | – | – | –
Nc1nc2cc(-c3cc[nH]n3)ccc2c2nn(CCC(F)F)cc12 [Example 354] | > 100 | 0.3 | > 100 | – | – | – | – | –
COc1ccccc1C(=O)NCCn1cc2c(n1)c(N)nc1cc(-c3cc[nH]n3)ccc12 [Example 81] | > 100 | 0.68 | 20 to 100 | – | – | – | – | –
Nc1nc2cc(-c3cc[nH]n3)ccc2c2cn(CCNC(=O)c3cnn4cccnc34)nc12 [Example 101] | > 100 | 2.39 | > 100 | – | – | – | – | –
CC(CC(=O)NCCCO)n1cc2c(N)nc3cc(-c4cc[nH]n4)ccc3c2n1 (stereo not drawn) [Example 619] | – | – | – | > 100 | 19.7 | > 100 | – | –
Nc1nc2cc(-c3cc[nH]n3)ccc2c2cn(CCCO)nc12 [Example 1, 3-[4-amino-7-(1H-pyrazol-3-yl)-2H-pyrazolo[3,4-c]quinolin-2-yl]propan-1-ol] | > 100 | 0.45 | > 100 | – | – | – | – | –
Nc1nc2cc(-c3cc[nH]n3)ccc2c2cn(CCN3CCCC3=O)nc12 [Example 122, 1-{2-[4-amino-7-(1H-pyrazol-3-yl)-2H-pyrazolo[3,4-c]quinolin-2-yl]ethyl}pyrrolidin-2-one] | > 100 | 5.99 | > 100 | – | – | – | – | –
Nc1nc2cc(-c3cc[nH]n3)ccc2c2[nH]c(CCNS(=O)(=O)c3ccccc3)cc12 [Example 484] | – | – | – | > 100 | 1.41 | > 100 | – | –
Nc1nc2cc(-c3cc[nH]n3)ccc2c2nn(CC3(CO)CC3)cc12 [Example 353] | > 100 | 0.61 | > 100 | – | – | – | – | –
COCCOCCn1cc2c(N)nc3cc(-c4cc[nH]n4)ccc3c2n1 [Example 310] | > 100 | 0.75 | > 100 | – | – | – | – | –
Nc1nc2cc(-c3ccn[nH]3)ccc2c2nn(CC3COCCN3)cc12 (stereo not drawn) [Example 255] | > 100 | 10.9 | > 100 | – | – | – | – | –
Nc1nc2cc(-c3cc[nH]n3)ccc2c2nn(C3CCOC3)cc12 (single isomer, unassigned) [Example 239] | > 100 | – | > 100 | – | – | – | 0.21 | –
C[C@H](CO)Cn1ncc2c(N)nc3cc(-c4cc[nH]n4)ccc3c21 [Example 232] | > 100 | 1.87 | > 100 | – | – | – | – | –
Nc1nc2cc(-c3cc[nH]n3)ccc2c2cn(CCCn3ccccc3=O)nc12 [Example 4, 1-{3-[4-amino-7-(1H-pyrazol-3-yl)-2H-pyrazolo[3,4-c]quinolin-2-yl]propyl}-1,2-dihydropyridin-2-one] | > 100 | 16.8 | > 100 | – | – | – | – | –
CO[C@@H](CO)Cn1cc2c(N)nc3cc(-n4cccn4)ccc3c2n1 [Example 388] | > 100 | 0.31 | > 100 | – | – | – | – | –

Structure (SMILES) | EC50 ([1]; activity range class) [µM] | EC50 [2, 4] [µM] | EC50 ([3]; activity range class) [µM] | EC50 ([1]; activity range) [µM] | EC50 [2, 5] [µM] | EC50 ([3]; activity range) [µM] | EC50 ([2]; IL-1β production, human) [µM] | EC50 ([2]; IL-1β production, human cells) [µM]
Nc1nc2cc(-c3ccn[nH]3)ccc2c2sc(CCCO)nc12 [Example 142, 3-[4-amino-7-(1H-pyrazol-3-yl)-[1,3]thiazolo[4,5-c]quinolin-2-yl]propan-1-ol] | > 100 | 1.5 | 20 to 100 | – | – | – | – | –
CC(C)(CO)n1cc2c(N)nc3cc(-c4cc[nH]n4)ccc3c2n1 [Example 407, 2-(4-amino-7-(1H-pyrazol-3-yl)-2H-pyrazolo[4,3-c]quinolin-2-yl)-2-methylpropan-1-ol, TFA] | – | – | – | > 100 | – | > 100 | – | 0.5
Nc1nc2cc(-c3ccn[nH]3)ccc2c2nn(CCCNS(=O)(=O)c3cccnc3)cc12 [Example 595] | – | – | – | > 100 | 12.9 | > 100 | – | –
C[C@@H](CO)Cn1cc2c(N)nc3cc(-c4cc[nH]n4)ccc3c2n1 [Example 332] | > 100 | 0.21 | > 100 | – | – | – | – | –
CS(=O)(=O)CCCn1cc2c(N)nc3cc(-c4cc[nH]n4)ccc3c2n1 [Example 211] | > 100 | 0.63 | > 100 | – | – | – | – | –
Nc1nc2cc(-c3cc[nH]n3)ccc2c2nn(C3CCC(O)C3)cc12 (single isomer, unassigned) [Example 342] | > 100 | – | > 100 | – | – | – | 0.34 | –
Nc1nc2cc(-c3ccn[nH]3)ccc2c2sc(CCNC(=O)c3ccccn3)nc12 [Example 136, N-[2-[4-amino-7-(1H-pyrazol-5-yl)-[1,3]thiazolo[4,5-c]quinolin-2-yl]ethyl]pyridine-2-carboxamide] | 20 to 100 | 0.16 | > 100 | – | – | – | – | –
COCCn1cc2c(n1)c(N)nc1cc(-c3ccn[nH]3)ccc12 [Example 185] | 1 to 20 | 0.21 | > 100 | – | – | – | – | –
CC(CCO)n1cc2c(N)nc3cc(-c4ccn[nH]4)ccc3c2n1 (stereo not drawn) [Example 281] | > 100 | 0.24 | > 100 | – | – | – | – | –
CCCn1cc2c(N)nc3cc(-c4cc[nH]n4)ccc3c2n1 [Example 220] | > 100 | 0.12 | > 100 | – | – | – | – | –
NCc1cc2c(N)nc3cc(-c4ccn[nH]4)ccc3c2[nH]1 [Example 438] | – | – | – | > 100 | 0.99 | > 100 | – | –
COc1cccc(C(=O)NCCn2cc3c(n2)c(N)nc2cc(-c4cc[nH]n4)ccc23)n1 [Example 65] | > 100 | 0.35 | 20 to 100 | – | – | – | – | –
CC(Cn1cc2c(N)nc3cc(-c4ccn[nH]4)ccc3c2n1)NC(=O)c1cc(F)ccn1 (stereo not drawn) [Example 295] | > 100 | 0.42 | > 100 | – | – | – | – | –
Nc1nc2cc(-c3cc[nH]n3)ccc2c2nn(CCNC(=O)c3ccc(F)cn3)cc12 [Example 196] | > 100 | 0.18 | > 100 | – | – | – | – | –
Nc1nc2cc(-c3cc[nH]n3)ccc2c2nn(Cc3cc(CO)no3)cc12 [Example 408] | – | – | – | > 100 | 1.94 | > 100 | – | –
